Laboratory results as given in article PMC3753754, “Andrographis paniculata Extract and Andrographolide Modulate the Hepatic Drug Metabolism System and Plasma Tolbutamide Concentrations in Rats” (Evidence-based Complementary and Alternative Medicine : eCAM, 2013).

Columns and labels:
[1] = Pharmacokinetics of tolbutamide in control, APE-pretreated and andrographolide-pretreated rats; type: in vivo, Sprague-Dawley rats; settings: male, Sprague-Dawley, rat, plasma, control rats (methyl cellulose vehicle for 5 days), tolbutamide 20 mg/kg oral
Description: Seven-week-old male Sprague-Dawley rats cannulated in the jugular vein were purchased from the Bio LASCO Experimental Animal Center (Taipei, Taiwan). The animals were fed a standard rat diet and were randomly assigned into control, APE-treated, and andrographolide-treated groups (n = 5). Rats were housed in plastic cages in a room kept at 23 ± 1°C and 60 ± 5% relative humidity with a 12-hour light and dark cycle. Food and drinking water were available ad libitum. Control rats were orally administered methyl cellulose. […] After the 5th daily dose, rats were deprived of food overnight. On day 6, a 20 mg/kg oral dose of tolbutamide, as a solution in Cremophor EL (polyoxyl 35 hydrogenated castor oil, Sigma)/ethanol/water (30/10/60, v/v/v), was administered to each rat. After the administration of tolbutamide, serial blood samples were collected up to 12 h after dosing from each rat. The animals were then killed by exsanguination, and the livers were collected.
Tolbutamide was prepared in a solution of Cremophor EL/ethanol/water (30/10/60, v/v/v). After administration, blood samples (~200 μL) were collected from the tail vein of each rat at 0.25, 0.5, 1, 2, 4, 8, and 12 h after dosing. Plasma was separated from blood by centrifugation (4000 ×g for 20 min at 4°C). An aliquot of 50 μL plasma was mixed with 100 μL acetonitrile and then centrifuged at 10,000 ×g for 15 min at 4°C. The supernatant was used to determine the concentration of tolbutamide by LC/MS. Calibration standards of tolbutamide were prepared by serial dilution of a tolbutamide stock solution with blank plasma, yielding final concentrations of tolbutamide ranging from 1 to 300 μg/mL of plasma.
The HPLC system consisted of an Agilent 1100 series LC System (Palo Alto, CA) and an Agilent Zorbax Eclipse XDB-C8 column (3 μm, 3.0 mm × 150 mm), interfaced to an Agilent MSD mass spectrometer equipped with an electrospray ionization source. Column temperature was set at 25°C. The initial mobile phase composition was 30% acetonitrile containing 10 mM ammonium acetate (solvent A) and 70% of 0.1% formic acid (solvent B). The following gradient system was used: 30% A to 50% A (0-1 min), 50% A to 98% A (1–3 min), 98% A (3–9 min), 98% A to 30% A (9-10 min), and 30% A (10–15 min). The flow rate was 0.5 mL/min. Sample injection volume was 10 μL. The MS data acquisition was via selected ion monitoring. The positive ion of the testing compound was selected, and the peak size was measured. The area under the plasma tolbutamide concentration versus time curve (AUC) was calculated by using the trapezoidal method.

[2] = Plasma tolbutamide concentration in high-fat diet-induced obese mice; type: in vivo, C57BL/6 mice; settings: C57BL/6, mouse, 2 h after dosing 20 mg/kg oral tolbutamide, control obese mice (methyl cellulose vehicle)
Description: Eleven-month-old high-fat diet-fed (45% of energy from fat; Research Diet Inc., New Brunswick, NJ) C57BL/6 mice were obtained from the National Health Research Institute (Miaoli, Taiwan). Control mice were orally administered 0.5% methyl cellulose (10 mL/kg). […] After the 5th daily dose, the mice were deprived of food overnight. On day 6, a 20 mg/kg oral dose of tolbutamide, as a solution in Cremophor EL/ethanol/water (30/10/60, v/v/v), was administered to each mouse. Thirty minutes later, a 1 g/kg dose of glucose, as a solution in water, was administered orally according to the method described by Zong et al.. Serial blood samples were collected up to 8 h after the glucose dose from each mouse. The animals were then killed by exsanguination and the livers collected.
Tolbutamide was prepared in a solution of Cremophor EL/ethanol/water (30/10/60, v/v/v). […]
The HPLC system consisted of an Agilent 1100 series LC System (Palo Alto, CA) and an Agilent Zorbax Eclipse XDB-C8 column (3 μm, 3.0 mm × 150 mm), interfaced to an Agilent MSD mass spectrometer equipped with an electrospray ionization source. […] The positive ion of the testing compound was selected, and the peak size was measured. The area under the plasma tolbutamide concentration versus time curve (AUC) was calculated by using the trapezoidal method.

In the case of `CCCCNC(=O)NS(=O)(=O)c1ccc(C)cc1` [tolbutamide], the MRT [1] is reported as 7.9 ± 1.6 h, the AUC(0-t) ([1]; read-out: AUC0–12 h of plasma tolbutamide) is reported as 1390 ± 262 µg·h/mL and the Cmax ([1]; read-out: C max of tolbutamide) is reported as 151 ± 21 µg/mL. For the same molecule, the Tmax ([1]; read-out: T max of tolbutamide) was 1.6 ± 0.5 h and the concentration at 2 h [2] was 124 ± 32 µg/mL.
